# PMC5460274 (Scientific Reports, 2017)
# Assays:
# Assay type in all cases: cell-based
# [1] = target: T1, dimethylarginine dimethylaminohydrolase 1 (DDAH1) (Homo sapiens, UniProt O94760); assay: UPLC-MS of L-citrulline formation; […] inhibition at […], reversible on dilution
# T1 construct: recombinant DDAH1 over-expressed in HEK293T cells (lysate)
# [2] = target: T1, dimethylarginine dimethylaminohydrolase 1 (DDAH1); assay: UPLC-MS of L-citrulline formation from ADMA; […] inhibition at […]
# [3] = target: T1, dimethylarginine dimethylaminohydrolase 1 (DDAH1); assay: UPLC-MS of L-citrulline formation; […] inhibition at […], time-dependent, reversible on dilution
# T1 sequence (O94760 2-285): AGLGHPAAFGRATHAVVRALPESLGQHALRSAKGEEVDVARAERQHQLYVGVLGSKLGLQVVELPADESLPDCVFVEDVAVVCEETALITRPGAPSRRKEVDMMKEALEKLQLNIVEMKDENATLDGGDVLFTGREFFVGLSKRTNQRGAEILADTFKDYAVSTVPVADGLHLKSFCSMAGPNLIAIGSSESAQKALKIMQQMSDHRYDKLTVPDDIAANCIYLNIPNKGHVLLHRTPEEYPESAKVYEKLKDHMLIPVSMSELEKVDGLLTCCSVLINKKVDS
smiles,measurement,setting,value
"COc1ccc2[nH]c([S+]([O-])Cc3ncc(C)c(OC)c3C)nc2c1 (stereo not drawn) [OPZ, omeprazole]",%,[1],24%
"COCCNC(N)=NCCC[C@H](N)C(=O)NS(C)(=O)=O [10a, ZST316]",%,[2],72%
"Cc1c(OCC(F)(F)F)ccnc1C[S+]([O-])c1nc2ccccc2[nH]1 (stereo not drawn) [LPZ, lansoprazole]",%,[3],23%
